# Source: PubChem BioAssay AID1918995 (Molecular Pharmacology Branch, DTP, NCI, 2023)
# pIC50: −log10 of the molar value. Several values for one entry are separate records, joined by “and”; a condition that tells them apart may be missing. Identical values can stand only once.
# Tested on: 324938-238-R-J1-PDC complex spheroid growth, % test/control
# Test: Anticancer human tumor 324938-238-R-J1-PDC patient-derived bladder carcinoma cell line growth inhibition [AhR]
# Conditions: for viability, T/C: stronger effect = lower value
# How it was run: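 Agents were dosed in half-log steps down from roughly clinical Cmax, or from 10 microM where Cmax was unknown, alone and with AhR antagonists. Read-out: percent test/control growth of tumor spheroids containing HUVEC and MSC stromal cells.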
# [1] = curve of first compound, second compound 0.1 µM
# [2] = curve of first compound, second compound 0.316 µM
# [3] = curve of first compound, second compound 1 µM
# [4] = curve of first compound, second compound 3.16 µM
# [5] = curve of first compound, second compound 10 µM
# 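Note: spheroids exposed to agents for seven days before viability read.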
structure (smiles),measurement,setting,value
CC(C)CC(NC(=O)C(Cc1ccccc1)NC(=O)c1cnccn1)B(O)O (stereo not given) + Cc1ccccc1N=Nc1ccc(NC(=O)c2ccnn2C)c(C)c1,pIC50,[1],8.28
same,pIC50,[2],8.31
same,pIC50,[3],8.32
same,pIC50,[4],8.36
same,pIC50,[5],8.35
same,"viability, T/C","second compound 0.1 µM, first compound 0.000949 µM",97.5%
same,"viability, T/C","second compound 0.1 µM, first compound 0.003 µM",94.3%
same,"viability, T/C","second compound 0.1 µM, first compound 0.00949 µM",1.29%
same,"viability, T/C","second compound 0.1 µM, first compound 0.03 µM",0.07%
same,"viability, T/C","second compound 0.1 µM, first compound 0.0949 µM",0.09%
same,"viability, T/C","second compound 0.1 µM, first compound 0.3 µM",0.27%
same,"viability, T/C","second compound 0.316 µM, first compound 0.000949 µM",92.3%
same,"viability, T/C","second compound 0.316 µM, first compound 0.003 µM",84.6%
same,"viability, T/C","second compound 0.316 µM, first compound 0.00949 µM",3.23%
same,"viability, T/C","second compound 0.316 µM, first compound 0.03 µM",0.04%
same,"viability, T/C","second compound 0.316 µM, first compound 0.0949 µM",0.05%
same,"viability, T/C","second compound 0.316 µM, first compound 0.3 µM",0.19%
same,"viability, T/C","second compound 1 µM, first compound 0.000949 µM",95.1%
same,"viability, T/C","second compound 1 µM, first compound 0.003 µM",84.1%
same,"viability, T/C","second compound 1 µM, first compound 0.00949 µM",1.49%
same,"viability, T/C","second compound 1 µM, first compound 0.03 µM",0.04%
same,"viability, T/C","second compound 1 µM, first compound 0.0949 µM",0.07%
same,"viability, T/C","second compound 1 µM, first compound 0.3 µM",0.17%
same,"viability, T/C","second compound 3.16 µM, first compound 0.000949 µM",84.2%
same,"viability, T/C","second compound 3.16 µM, first compound 0.003 µM",73.4%
same,"viability, T/C","second compound 3.16 µM, first compound 0.00949 µM",2.32%
same,"viability, T/C","second compound 3.16 µM, first compound 0.03 µM",0.06%
same,"viability, T/C","second compound 3.16 µM, first compound 0.0949 µM",0.06%
same,"viability, T/C","second compound 3.16 µM, first compound 0.3 µM",0.19%
same,"viability, T/C","second compound 10 µM, first compound 0.000949 µM",85.9%
same,"viability, T/C","second compound 10 µM, first compound 0.003 µM",76.1%
same,"viability, T/C","second compound 10 µM, first compound 0.00949 µM",2.47%
same,"viability, T/C","second compound 10 µM, first compound 0.03 µM",0.24%
same,"viability, T/C","second compound 10 µM, first compound 0.0949 µM",0.36%
same,"viability, T/C","second compound 10 µM, first compound 0.3 µM",0.32%
Nc1ncn(C2CC(O)C(CO)O2)c(=O)n1 (stereo not given),"viability, T/C",compound 0.00316 µM,69.8% and 99.6% and 102%
same,"viability, T/C",compound 0.01 µM,96.2% and 113% and 94.2%
same,"viability, T/C",compound 0.0316 µM,82.3% and 98.6% and 85.2%
same,"viability, T/C",compound 0.1 µM,83.7% and 98.3% and 96.2%
same,"viability, T/C",compound 0.316 µM,128% and 80.2% and 81.7%
same,"viability, T/C",compound 1 µM,92.8% and 72% and 68.3%
same,pIC50,curve of compound,< 6.00
CC1(C)CCC(CN2CCN(c3ccc(C(=O)NS(=O)(=O)c4ccc(NCC5CCOCC5)c([N+](=O)[O-])c4)c(Oc4cnc5[nH]ccc5c4)c3)CC2)=C(c2ccc(Cl)cc2)C1 + CC(CO)NC(=O)c1cc(-c2ccc(Cl)cc2)nn(-c2cnn(C)c2)c1=O,pIC50,[1],< 5.00
same,pIC50,[2],< 5.00
same,pIC50,[3],< 5.00
same,pIC50,[4],< 5.00
same,pIC50,[5],< 5.00
same,"viability, T/C","second compound 0.1 µM, first compound 0.0316 µM",102%
same,"viability, T/C","second compound 0.1 µM, first compound 0.1 µM",101%
same,"viability, T/C","second compound 0.1 µM, first compound 0.316 µM",91.8%
same,"viability, T/C","second compound 0.1 µM, first compound 1 µM",77.1%
same,"viability, T/C","second compound 0.1 µM, first compound 3.16 µM",72.4%
same,"viability, T/C","second compound 0.1 µM, first compound 10 µM",61.4%
same,"viability, T/C","second compound 0.316 µM, first compound 0.0316 µM",96.2%
same,"viability, T/C","second compound 0.316 µM, first compound 0.1 µM",96.7%
same,"viability, T/C","second compound 0.316 µM, first compound 0.316 µM",89.9%
same,"viability, T/C","second compound 0.316 µM, first compound 1 µM",82.2%
same,"viability, T/C","second compound 0.316 µM, first compound 3.16 µM",70.9%
same,"viability, T/C","second compound 0.316 µM, first compound 10 µM",61.8%
same,"viability, T/C","second compound 1 µM, first compound 0.0316 µM",80.6%
same,"viability, T/C","second compound 1 µM, first compound 0.1 µM",87.9%
same,"viability, T/C","second compound 1 µM, first compound 0.316 µM",92.3%
same,"viability, T/C","second compound 1 µM, first compound 1 µM",72%
same,"viability, T/C","second compound 1 µM, first compound 3.16 µM",68.2%
same,"viability, T/C","second compound 1 µM, first compound 10 µM",62%
same,"viability, T/C","second compound 3.16 µM, first compound 0.0316 µM",71.8%
same,"viability, T/C","second compound 3.16 µM, first compound 0.1 µM",77.6%
same,"viability, T/C","second compound 3.16 µM, first compound 0.316 µM",68.3%
same,"viability, T/C","second compound 3.16 µM, first compound 1 µM",61.3%
same,"viability, T/C","second compound 3.16 µM, first compound 3.16 µM",65.5%
same,"viability, T/C","second compound 3.16 µM, first compound 10 µM",54.4%
same,"viability, T/C","second compound 10 µM, first compound 0.0316 µM",62.2%
same,"viability, T/C","second compound 10 µM, first compound 0.1 µM",63.4%
same,"viability, T/C","second compound 10 µM, first compound 0.316 µM",67.6%
same,"viability, T/C","second compound 10 µM, first compound 1 µM",59.4%
same,"viability, T/C","second compound 10 µM, first compound 3.16 µM",61.5%
same,"viability, T/C","second compound 10 µM, first compound 10 µM",50.6%
CCc1c2c(nc3ccc(O)cc13)-c1cc3c(c(=O)n1C2)COC(=O)[C@]3(O)CC,"viability, T/C",compound 0.000949 µM,80.8% and 57.3% and 38.8%
same,"viability, T/C",compound 0.003 µM,71% and 52.4% and 28.9%
same,"viability, T/C",compound 0.00949 µM,70.2% and 18.2% and 19%
same,"viability, T/C",compound 0.03 µM,90.4% and 15.3% and 17.9%
same,"viability, T/C",compound 0.0949 µM,78.3% and 16.9% and 17%
same,"viability, T/C",compound 0.3 µM,69.4% and 14.9% and 15.4%
Cc1ccccc1N=Nc1ccc(NC(=O)c2ccnn2C)c(C)c1,"viability, T/C",compound 10 µM,79.2% [middle of 20 runs]
same,pIC50,"compound alone, run of 07/26/2022",< 5.00
